Data set [1] relates to GK rats. In words: Preventative effects on diabetes mellitus in GK rats prior to the crisis of diabetes (drug mixed in food, 8 weeks). The format is in vivo, rat. From the text: 6-week-old GK rats (Charles River Japan, Inc.) which were prior to the crisis of diabetes mellitus, were used. Compound A was mixed with food powder for the rat (F2, Funabashi Farm Co.,) at concentrations of 0.04%, 0.2% and 1.0% (w/w) and was orally administered to 4-6 rats per group for 8 weeks ad libitum (the mean amount of food intake per rat: 17.3 g/day).
The rats in the control group were fed with only food powder.
Blood from each rat was collected from the tail vein every 2 weeks, and the blood glucose level, plasma lactate level and plasma triglyceride level were determined. Blood glucose level was determined by electric potential measurement method based on glucose oxidase immobilized electrode using Glucoloader GXT (A&T Corp.). Plasma lactate level was determined using a spectrophotometric method with Lactate Reagent (Sigma-Aldrich Japan K. K.), and plasma triglyceride level was determined using a spectrophotometric method with Triglyceride E Test Wako (Wako Pure Chemical Industries, Ltd.). When the blood was collected after the drug administration period and the drug withdrawal period for 2 weeks, glycosylated hemoglobin ratio was also determined with DCA-2000 (Bayer Medical Co., Ltd.).

Data set [2] deals with GK rats. Put plainly: Improving effects on impaired glucose tolerance: oral glucose load in fasted GK rats, AUC of blood glucose. The format is in vivo, rat. As to conditions: 2 g/kg glucose 1 hour later. The procedure: 6-week-old GK rats of (Charles River Japan, Inc.) which show IGT symptoms, but not diabetes mellitus, were fasted overnight. Compound A was orally administered at dosages of 10, 20 or 40 mg/kg. Two gram per kilogram of 50% (w/w) glucose solution was orally administered 1 hour after the administration of Compound A. The rats in the control group were administered orally 2 g/kg of 50% (w/w) glucose solution only.
The blood was collected from the tail vein just before and 0.5, 1, 2 and 4 hours after the glucose administration. Blood glucose level was determined by electric potential measurement method based on a glucose oxidase immobilized electrode using Glucoloader GXT (A&T Corp.).
On the abscissas, the time after the administration of Compound A was plotted, and on the ordinate, the blood glucose level of each individual was plotted. Each point was drawn with a straight line. The areas under the curves (AUCs) for the blood glucose levels of the graph obtained were calculated.
Using the areas under the curves (AUCs) for the blood glucose levels, the average value and standard error of each group were calculated. […]
The blood was collected from the tail vein just before and 0.5, 1 and 2 hours after the glucose administration. Blood glucose level was determined by electric potential measurement method based on a glucose oxidase immobilized electrode using Glucoloader GXT (A&T Corp.). […]

Data set [3] deals with patients. The settings on record: patients treated with metformin; N Engl J Med 346, 393-403 (2002); cited from earlier work.

Consider `CCOC(=O)[C@H](C)NP(=O)(N[C@@H](C)C(=O)OCC)c1ccc(-c2nc(N)sc2CC(C)C)o1` [Compound A, 2-amino-5-isobutyl-4-{2-[5-(N,N′-bis((S)-1-ethoxycarbonyl)ethyl)phosphonamido]furanyl}thiazole], for which the “increase in the blood glucose level” value in data set [1] (6-week-old GK rats, 0.04%, 0.2% and 1.0% (w/w) in food, oral, 8 weeks, FIG. 1) is “inhibited in a dose-dependent manner”. In addition, the glycosylated hemoglobin ratio entry in data set [1] (GK rats, after 8 weeks of 0.04%, 0.2% and 1.0% (w/w) in food, FIG. 2) is “decreased in a dose-dependent manner”. Further, the “gastrointestinal symptoms such as diarrhea” value in data set [1] (GK rats, all the groups examined) is recorded as “no animal suffered gastrointestinal symptoms such as diarrhea”. Moreover, the “blood glucose level after the drug administration period was terminated” value in data set [1] (GK rats, drug withdrawal period 2 weeks, FIG. 1) is on record as “attained the same maximum level as that in the control group”. Besides, the “glycosylated hemoglobin ratio after withdrawal of administration” value in data set [1] (GK rats, drug withdrawal period 2 weeks, FIG. 2) is recorded as “increased to the same level as that in the control group”. Further, in data set [1] (GK rats, during the administration period, FIG. 3), the plasma triglyceride level result is “not increased as much as those in the control rats or was prevented from increase”. Besides, the plasma lactate level entry in data set [1] (GK rats, during the administration period, versus control group, FIG. 4) was “not significantly different from the control group”. For the same molecule, in data set [2] (GK rats fasted overnight, 10, 20 or 40 mg/kg oral, blood to 4 hours, FIG. 5), the “AUCs of the blood glucose levels” value is listed as “decreased by the treatment of Compound A in a dose-dependent manner”.

As for `CCOc1cc2ncnc(Nc3cccc(-c4csc(C)n4)c3)c2cc1OCC` [Compound B, (6,7-diethoxy-quinazolin-4-yl)-[3-(2-methyl-thiazol-4-yl)phenyl]amine], the “AUCs of the blood glucose levels” value in data set [2] (GK rats fasted overnight, 100 mg/kg or 300 mg/kg oral, blood to 2 hours, FIG. 6) is “decreased by the treatment of Compound B in a dose-dependent manner”.

As for `CN(C)C(=N)N=C(N)N` [metformin], in data set [3], the “patients with gastrointestinal symptoms such as diarrhea” value was “approximately 80%”.

Values taken from US20050187194A1, “Preventive agents for diabetes mellitus” (SANKYO COMPANY LIMITED, priority 2002, published 2005).
